Assay results as given in ChEMBL document CHEMBL5537162, “Development of Antibacterial Peptides with Membrane Disruption and Folate Pathway Inhibitory Activities against Methicillin-Resistant Staphylococcus aureus” (J Med Chem, 2024).
Calls of active or inactive are those of the source. The calls are words filed in the database; no cut-off is given here.

Experiments:
Staphylococcus aureus [1] = test: Antibacterial activity against Methicillin-resistant Staphylococcus aureus infected in ICR mouse skin infection model assessed as log reduction in bacterial count at 40 mg/kg, sc measured upto 10 days; format: functional; settings: time <= 10 day
Staphylococcus aureus [2] = test: Antibacterial activity against methicillin-resistant Staphylococcus aureus assessed as reduction in viable bacteria at 1 to 8 times MIC measured at 1 hr by time-kill assay; format: functional, organism-based
[3] = Stability in mouse blood plasma measured for 24 hrs by RP-HPLC analysis; format: ADME, cell-free
[4] = biological target: T1, Monofunctional C1-tetrahydrofolate synthase, mitochondrial (Homo sapiens, UniProt Q6UB35); test: Binding affinity to FTHFS (unknown origin) expressed in Escherichia coli BL21 (DE3) using IPTG as […] assessed as dissociation constant by MST assay
T1 sequence (Q6UB35 whole entry): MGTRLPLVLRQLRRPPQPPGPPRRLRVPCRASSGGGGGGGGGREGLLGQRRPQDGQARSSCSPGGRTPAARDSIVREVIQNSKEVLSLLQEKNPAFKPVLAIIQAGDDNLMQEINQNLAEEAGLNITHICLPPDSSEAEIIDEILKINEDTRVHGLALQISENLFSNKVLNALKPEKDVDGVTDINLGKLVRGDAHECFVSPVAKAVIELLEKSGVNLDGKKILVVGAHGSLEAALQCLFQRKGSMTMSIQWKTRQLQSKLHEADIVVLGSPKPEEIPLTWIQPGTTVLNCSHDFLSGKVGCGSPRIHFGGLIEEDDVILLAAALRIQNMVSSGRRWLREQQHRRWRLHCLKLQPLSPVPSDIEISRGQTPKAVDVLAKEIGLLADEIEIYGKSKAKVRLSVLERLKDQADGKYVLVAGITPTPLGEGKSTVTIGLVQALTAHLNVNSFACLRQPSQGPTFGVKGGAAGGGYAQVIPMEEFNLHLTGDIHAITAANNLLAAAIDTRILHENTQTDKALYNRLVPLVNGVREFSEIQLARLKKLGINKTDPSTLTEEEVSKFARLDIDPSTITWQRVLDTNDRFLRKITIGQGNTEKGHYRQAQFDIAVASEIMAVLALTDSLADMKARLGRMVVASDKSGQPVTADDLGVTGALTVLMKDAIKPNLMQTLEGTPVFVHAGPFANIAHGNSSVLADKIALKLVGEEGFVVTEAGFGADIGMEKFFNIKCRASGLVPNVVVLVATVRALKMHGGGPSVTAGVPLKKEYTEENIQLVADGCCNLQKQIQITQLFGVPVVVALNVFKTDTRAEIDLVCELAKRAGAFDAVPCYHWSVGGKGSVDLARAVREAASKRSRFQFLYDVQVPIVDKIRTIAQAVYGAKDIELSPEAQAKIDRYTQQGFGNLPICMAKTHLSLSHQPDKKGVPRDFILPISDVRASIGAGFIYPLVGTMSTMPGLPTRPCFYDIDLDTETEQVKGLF

Pseudomonas aeruginosa = test: Antibacterial activity against Pseudomonas aeruginosa assessed as bacterial growth inhibition incubated for 24 hrs by CLSI based micro-broth dilution assay; format: functional
Staphylococcus aureus [5] = test: Antibacterial activity against methicillin-resistant Staphylococcus aureus 18878 assessed as bacterial growth inhibition incubated for 24 hrs by CLSI based micro-broth dilution assay; format: functional
[6] = (§1) Hemolytic activity in mouse RBC assessed as hemolysis incubated for 1 hrs by spectrophotometric analysis; format: toxicity, cell-based, Erythrocyte; settings: mouse red blood cells (erythrocytes)
Erythrocyte = test: as §1; format: toxicity, cell-based; settings: erythrocyte, 1 h
Staphylococcus aureus [7] = test: Drug resistance, ratio of MIC for methicillin-resistant Staphylococcus aureus after 7 days exposure to MIC for methicillin-resistant Staphylococcus aureus during first exposure; format: functional; settings: time 7 day
Staphylococcus aureus [8] = test: Antibacterial activity against methicillin-resistant Staphylococcus aureus 19498 assessed as bacterial growth inhibition incubated for 24 hrs by CLSI based micro-broth dilution assay; format: functional
[9] = Stability in methicillin-resistant Staphylococcus aureus supernatants measured for 12 hrs by RP-HPLC analysis; format: physicochemical; settings: read-out: Stability
Staphylococcus aureus [10] = test: Antibacterial activity against methicillin-resistant Staphylococcus aureus 18567 assessed as bacterial growth inhibition incubated for 24 hrs by CLSI based micro-broth dilution assay; format: functional
[11] = Hemolytic activity in mouse RBC assessed as hemolysis at 320 uM incubated for 1 hrs by spectrophotometric analysis relative to control; format: toxicity, cell-based, Erythrocyte; settings: mouse red blood cells (erythrocytes), read-out: %max
Staphylococcus aureus [12] = test: Antibacterial activity against methicillin-resistant Staphylococcus aureus assessed as fold reduction in viable bacteria at 8 times MIC measured at 3 to 6 hrs by time-kill assay; format: functional, organism-based; settings: time 3-6 hrs
Staphylococcus aureus [13] = test: Antibacterial activity against methicillin-resistant Staphylococcus aureus 18475 assessed as bacterial growth inhibition incubated for 24 hrs by CLSI based micro-broth dilution assay; format: functional
Staphylococcus aureus [14] = test: Antibacterial activity against methicillin-resistant Staphylococcus aureus assessed as fold reduction in viable bacteria at 1 to 8 times MIC measured at 3 hr by time-kill assay; format: functional
Staphylococcus aureus [15] = test: Antibacterial activity against methicillin-resistant Staphylococcus aureus 18858 assessed as bacterial growth inhibition incubated for 24 hrs by CLSI based micro-broth dilution assay; format: functional
Staphylococcus aureus [16] = test: Antibacterial activity against methicillin-resistant Staphylococcus aureus 19167 assessed as bacterial growth inhibition incubated for 24 hrs by CLSI based micro-broth dilution assay; format: functional
[17] = Selectivity index, ratio of IC50 for antiproliferative activity against HEK293T cells assessed as reduction in cell viability to MIC for antibacterial activity against methicillin-resistant Staphylococcus aureus assessed as bacterial growth inhibition; format: toxicity, cell-based; settings: human, read-out: Selectivity Index
Escherichia coli = test: Antibacterial activity against Escherichia coli assessed as bacterial growth inhibition incubated for 24 hrs by CLSI based micro-broth dilution assay; format: functional
Staphylococcus aureus [18] = test: Antibacterial activity against methicillin-resistant Staphylococcus aureus 18466 assessed as bacterial growth inhibition incubated for 24 hrs by CLSI based micro-broth dilution assay; format: functional
Staphylococcus aureus [19] = test: Antibacterial activity against Staphylococcus aureus 8325.4 assessed as bacterial growth inhibition incubated for 24 hrs by CLSI based micro-broth dilution assay; format: functional
Staphylococcus aureus [20] = test: Antibacterial activity against Staphylococcus aureus 29213 assessed as bacterial growth inhibition incubated for 24 hrs by CLSI based micro-broth dilution assay; format: functional
Staphylococcus aureus [21] = test: Antibacterial activity against methicillin-resistant Staphylococcus aureus 19047 assessed as bacterial growth inhibition incubated for 24 hrs by CLSI based micro-broth dilution assay; format: functional
Porphyromonas gingivalis = test: Antibacterial activity against Porphyromonas gingivalis assessed as bacterial growth inhibition incubated for 24 hrs by CLSI based micro-broth dilution assay; format: functional
[22] = Antiproliferative activity against HEK293T cells assessed as reduction in cell viability measured for 48 hrs by MTT assay; format: toxicity, cell-based, HEK-293T; settings: human
Candida albicans = test: Antifungal activity against Candida albicans assessed as inhibition of fungal growth; format: functional
Cell membrane [23] = test: Disruption of membrane integrity in methicillin-resistant Staphylococcus aureus assessed as increase in fluorescence intensity measured for 120 mins by confocal microscopic analysis; format: cell membranes
Staphylococcus aureus [24] = test: Antibacterial activity against methicillin-resistant Staphylococcus aureus assessed as bacterial growth inhibition incubated for 24 hrs by CLSI based micro-broth dilution assay; format: functional
Cell membrane [25] = test: Disruption of membrane integrity in methicillin-resistant Staphylococcus aureus measured for 6 hrs by scanning electron microscopic analysis; format: cell membranes
[26] = Stability in methicillin-resistant Staphylococcus aureus supernatants measured for 24 hrs by RP-HPLC analysis; format: physicochemical

H-RRRLARRLIFFIRRAW-NH2
log(activity) (Staphylococcus aureus [1]): 5.8 | Activity (Staphylococcus aureus [2]): Active | Stability [3]: Unstable | Kd [4]: 3.68 µM | MIC (Pseudomonas aeruginosa): > 48 µM | MIC (Staphylococcus aureus [5]): 6 µM | HC50 at 1 h [6]: > 320 µM | HC10 (Erythrocyte): > 320 µM | Ratio (Staphylococcus aureus [7]): 100 | MIC (Staphylococcus aureus [8]): 3 µM | remaining at 12 h [9]: 25% | MIC (Staphylococcus aureus [10]): 6 µM | hemolysis at 1 h, 320 µM [11]: 8.97% | Activity (Staphylococcus aureus [12]): Active | MIC (Staphylococcus aureus [13]): 6 µM | fold change (FC) (Staphylococcus aureus [14]): ~300 | MIC (Staphylococcus aureus [15]): 3 µM | MIC (Staphylococcus aureus [16]): 6 µM | selectivity ratio [17]: 107 | MIC (Escherichia coli): > 48 µM | MIC (Staphylococcus aureus [18]): 6 µM | MIC (Staphylococcus aureus [19]): 3 µM | MIC (Staphylococcus aureus [20]): 3 µM | MIC (Staphylococcus aureus [21]): 6 µM | MIC (Porphyromonas gingivalis): 12 µM | IC50 at 48 h [22]: > 320 µM | MIC (Candida albicans): 3 µM | Activity (Cell membrane [23]): Active | MIC (Staphylococcus aureus [24]): 3 µM | Activity (Cell membrane [25]): Active | Stability [26]: Stable

H-LARVARRVIRFIRRAW-NH2
log(activity) (Staphylococcus aureus [1]): 5.9 | Activity (Staphylococcus aureus [2]): Active | Stability [3]: Unstable | Kd [4]: 2.24 µM | MIC (Pseudomonas aeruginosa): > 48 µM | MIC (Staphylococcus aureus [5]): 6 µM | HC50 at 1 h [6]: > 320 µM | HC10 (Erythrocyte): > 320 µM | Ratio (Staphylococcus aureus [7]): 100 | MIC (Staphylococcus aureus [8]): 6 µM | remaining at 12 h [9]: 50% | MIC (Staphylococcus aureus [10]): 3 µM | hemolysis at 1 h, 320 µM [11]: 8.58% | Activity (Staphylococcus aureus [12]): Active | MIC (Staphylococcus aureus [13]): 6 µM | fold change (FC) (Staphylococcus aureus [14]): ~300 | MIC (Staphylococcus aureus [15]): 3 µM | MIC (Staphylococcus aureus [16]): 6 µM | selectivity ratio [17]: 107 | MIC (Escherichia coli): > 48 µM | MIC (Staphylococcus aureus [18]): 6 µM | MIC (Staphylococcus aureus [19]): 3 µM | MIC (Staphylococcus aureus [20]): 3 µM | MIC (Staphylococcus aureus [21]): 3 µM | MIC (Porphyromonas gingivalis): 12 µM | IC50 at 48 h [22]: > 320 µM | MIC (Candida albicans): 3 µM | Activity (Cell membrane [23]): Active | MIC (Staphylococcus aureus [24]): 3 µM | Activity (Cell membrane [25]): Active | Stability [26]: Stable
